Consider seven compounds from paper PMC6009911, “Inhibition of human cytochromes P450 2A6 and 2A13 by flavonoids, acetylenic thiophenes and sesquiterpene lactones from Pluchea indica and Vernonia cinerea” (Journal of Enzyme Inhibition and Medicinal Chemistry, 2017).

The target in series [1] is T1, CYP2A13 (Homo sapiens, UniProt Q16696).
T1 construct: made in house
T1 sequence (Q16696 1-494): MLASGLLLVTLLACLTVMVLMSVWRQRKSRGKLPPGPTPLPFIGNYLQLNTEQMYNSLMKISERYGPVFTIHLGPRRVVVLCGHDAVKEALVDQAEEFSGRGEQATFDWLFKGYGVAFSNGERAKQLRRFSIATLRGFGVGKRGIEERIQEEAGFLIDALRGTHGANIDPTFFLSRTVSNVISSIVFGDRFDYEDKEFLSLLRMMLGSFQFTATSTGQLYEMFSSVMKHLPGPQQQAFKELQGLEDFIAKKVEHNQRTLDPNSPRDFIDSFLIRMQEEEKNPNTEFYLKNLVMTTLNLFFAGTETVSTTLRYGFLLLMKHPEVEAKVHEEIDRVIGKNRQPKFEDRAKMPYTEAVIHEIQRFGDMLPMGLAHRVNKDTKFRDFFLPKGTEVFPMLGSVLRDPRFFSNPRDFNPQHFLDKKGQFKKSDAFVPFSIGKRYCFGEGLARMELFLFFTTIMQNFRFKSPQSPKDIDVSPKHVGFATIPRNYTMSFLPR
The experiment in a line: Inhibition of CYP2A13-mediated coumarin 7-hydroxylation, enzymatic reconstitution assay. The class given is biochemical. Conditions: for Ki: coumarin 0–40 µM. The protocol:
Inhibitory effect of plant extracts, fractions, subfractions and constituents was determined by inhibition assay on CYP2A6- and CYP2A13-mediated coumarin 7-hydroxylation. The recombinant human CYP2A6, CYP2A13 and rat NADPH-dependent cytochrome P450 oxidoreductase (CYPOR) proteins were expressed, purified, according to the methods previously described. […] Rate of 7-hydroxycoumarin product formation was measured on spectrofluorometer (Shimadzu, Kyoto, Japan) at λex = 355 nm, λem = 460 nm. Inhibition effects were determined by incubation with extracts, fractions or purified compounds with coumarin substrate in the reaction mixture and calculated as per cent relative inhibition compared with vehicle control reaction[20] and IC50 values were calculated using GraphPad Prism 5 (GraphPad Software Inc., La Jolla, CA).
(§1) MBI requires NADPH and time to generate reactive intermediate as inhibitor and ultimately inactivates the enzyme. MBI was evaluated by pre-incubation with each test inhibitor in the reaction at different time periods (0, 10, 20 and 30 min) in the presence of NADPH for time-dependent assay, as described. The apparent inactivation constants, KI and Kinact, were obtained from double reciprocal plots of kobs versus inhibitor concentrations by linear regression analysis on GraphPad Prism 5. Methoxsalen was used as a control mechanism-based inhibitor for time- and NADPH-dependent inhibition assays.

Series [2] addresses T2, CYP2A6 (Homo sapiens, UniProt P11509).
T2 sequence (P11509 1-494): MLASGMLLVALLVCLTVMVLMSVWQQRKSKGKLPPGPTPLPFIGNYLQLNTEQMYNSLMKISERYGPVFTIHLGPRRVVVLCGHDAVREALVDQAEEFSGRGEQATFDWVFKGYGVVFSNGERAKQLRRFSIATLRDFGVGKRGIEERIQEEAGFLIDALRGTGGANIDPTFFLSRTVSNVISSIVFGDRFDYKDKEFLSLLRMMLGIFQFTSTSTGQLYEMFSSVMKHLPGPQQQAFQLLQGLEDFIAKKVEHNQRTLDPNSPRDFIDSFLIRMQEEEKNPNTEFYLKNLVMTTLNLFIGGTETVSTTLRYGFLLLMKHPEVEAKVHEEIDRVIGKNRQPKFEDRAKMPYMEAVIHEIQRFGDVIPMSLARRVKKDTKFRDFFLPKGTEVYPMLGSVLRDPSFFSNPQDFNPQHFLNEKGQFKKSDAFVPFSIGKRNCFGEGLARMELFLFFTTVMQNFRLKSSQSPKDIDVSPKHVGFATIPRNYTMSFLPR
More on the design: made in house. Conditions: ref Prasopthum et al., 2015, cited from earlier work; for Ki: coumarin 0–40 µM.

For series [3], the target named is T1, CYP2A13. The experiment in a line: Mechanism-based (time- and NADPH-dependent) inactivation of CYP2A13. The class given is biochemical. To be noted: for kinact / KI (inactivation): pre-incubation 0-30 min with NADPH; for KI (inactivation): read-out: CYP2A13 KI (inactivation constant). The protocol: as §1
In series [4] the target is T1, CYP2A13. Kind of series: Effects of trapping agents and dialysis on inactivation of CYP2A13. The class given is biochemical. Conditions: CYP2A13 inhibition reaction mixture, probe coumarin; for activity at 10 µM: compound 10 µM; for activity at 20 µM: compound 20 µM. The protocol: as §1
To explore whether inactivation of CYP2As by thiophenes 9–11 and of CYP2A13 by hirsutinolides 5-8 could be reversed, the removal of reversible inhibitory compounds by dialysis and addition of trapping agents (GSH, semicarbazide, catalase or potassium ferricyanide) in the inhibition reaction mixture were performed. […] Similarly, mechanism-based inactivation of both CYP2A6 and CYP2A13 by thiophenes 9–11 could not be reversed (Table 3).

Series [5] deals with T2, CYP2A6. To be noted: cited from earlier work.
Setting [6] is: 10-min pre-incubation in the presence of NADPH, read-out: IC50 CYP2A13 Pre-incubation.
Where [7] appears, read: coincubation, coumarin 2 µM, read-out: IC50 CYP2A13 Coincubation.
The mark [8] stands for this setting: read-out: Per cent remaining activity, 70 μM K3Fe(CN)6.
Setting [9] is: read-out: Per cent remaining activity, 2 mM GSH.
The mark [10] stands for this setting: read-out: Per cent remaining activity, 5 mM semicarbazide.
Where [11] appears, read: read-out: Per cent remaining activity, 2000 U catalase.
Where [12] appears, read: read-out: Per cent remaining activity, Dialysis (+) NADPH.
Setting [13] is: read-out: Per cent remaining activity, Dialysis (−) NADPH.
Where [14] appears, read: read-out: Per cent remaining activity, Pre-incubation.
Where [15] appears, read: read-out: CYP2A6 KI (inactivation constant), ref Prasopthum et al., 2015.
Where [16] appears, read: 10-min pre-incubation in the presence of NADPH, read-out: IC50 CYP2A6 Pre-incubation.
The mark [17] stands for this setting: coincubation, coumarin 2 µM, read-out: IC50 CYP2A6 Coincubation.
The mark [18] stands for this setting: read-out: inactivation kinetic values (KI) against CYP2A6, literature values.

Read-outs that look alike come from different tables or passages of the source. Marks after values point to notes of the source that are not given here.

In general, IC50 refers to the midpoint of a concentration-inhibition curve. A word on the Ki: it is the equilibrium dissociation constant of an inhibitor or competing ligand from its target. `O=c1cc(-c2ccc(O)cc2)oc2cc(O)cc(O)c12` [Apigenin 1, apigenin]: the “CYP2A13 Mode of inhibition” value at CYP2A13 [1] is given as “Mixed type”. For the same compound, the IC50 on CYP2A13 [1] (setting [6]) came out at 0.04 ± 0.01 µM; on CYP2A13 [1] (setting [7]), 0.05 ± 0.01 µM. For the same compound, the Ki on CYP2A13 [1] was determined as 0.014 ± 0.002 µM. Also, at CYP2A6 [2], the “CYP2A6 Mode of inhibition” value is reported as “Mixed type^b”.
By kinact is commonly meant the maximal first-order rate at which the target is inactivated. For `C=C(CO)C(=O)OC1CC(C)C2(O)CCC(C)(/C=C3/OC(=O)C(COC(C)=O)=C31)O2` (stereo not drawn) [Hirsutinolide 7, 8α-(4-hydroxymethacryloyloxy)-hirsutinolide-13-O-acetate], the “CYP2A13 Mode of inhibition” value on CYP2A13 [1] was “Mixed type”. Also, the IC50 is 10.5 ± 0.49 µM on CYP2A13 [1] (setting [6]), 23.3 ± 1.35 µM on CYP2A13 [1] (setting [7]), 6.8 ± 0.77 µM on CYP2A6 [2] (setting [16]) and 32.7 ± 2.2 µM on CYP2A6 [2] (setting [17]). Besides, the Ki on CYP2A13 [1] was 12.6 ± 1.26 µM; at CYP2A6 [2], 20.4 ± 5.4 µM. The kinact on CYP2A13 [3] was 0.001 s⁻¹. Besides, the KI (inactivation) on CYP2A13 [3] was 8.67 ± 0.15 µM; at CYP2A6 [5] (setting [15]) it was 5.32 ± 0.29 µM. The “KI, CYP2A13 (in Figure 2)” value at CYP2A13 [3] (time- and concentration-dependent inactivation) came out at 8.67 ± 0.15. In addition, the activity at 10 µM at CYP2A13 [4] (setting [8]) came out at 21.4 ± 2.75%; at CYP2A13 [4] (setting [9]) it was 18.3 ± 1.54%; at CYP2A13 [4] (setting [10]), 26.6 ± 1.25%; on CYP2A13 [4] (setting [11]), 20.9 ± 5.18%; on CYP2A13 [4] (setting [12]), 21.4 ± 4.45%; on CYP2A13 [4] (setting [13]), 93.3 ± 2.1%. In addition, the activity at 10 µM at CYP2A13 [4] (setting [14]) was found to be 22.2 ± 1.88%. In addition, the “CYP2A6 Kinact” value at CYP2A6 [5] (ref Prasopthum et al., 2015) was 0.03 ± 0.01^b. Moreover, the “CYP2A6 Mode of inhibition” value on CYP2A6 [2] is on record as “Mixed type^b”.
In the case of `CC(=O)OCC1=C2/C(=C\C3(C)CCC(O)(O3)C(C)CC2OC(=O)/C(C)=C/CO)OC1=O` (stereo not drawn) [Hirsutinolide 8, 8α-(4-hydroxytigloyloxy)-hirsutinolide-13-O-acetate], the “CYP2A13 Mode of inhibition” value at CYP2A13 [1] was “Mixed type”. In addition, the IC50 at CYP2A13 [1] (setting [6]) is 15.9 ± 0.67 µM; at CYP2A13 [1] (setting [7]), 36.1 ± 1.39 µM; on CYP2A6 [2] (setting [16]), 13.1 ± 2.4 µM; at CYP2A6 [2] (setting [17]), 64.5 ± 5.8 µM. In addition, the Ki at CYP2A13 [1] is 15.8 ± 2.5 µM; at CYP2A6 [2] it was 42.3 ± 8.4 µM. Moreover, the kinact at CYP2A13 [3] was 0.00167 s⁻¹. For the same compound, the KI (inactivation) at CYP2A13 [3] is 8.62 ± 0.37 µM; at CYP2A6 [5] (setting [15]), 7.64 ± 1.24 µM. In addition, the activity at 20 µM at CYP2A13 [4] (setting [8]) was 21.8 ± 1.85%; on CYP2A13 [4] (setting [9]), 25.8 ± 4.2%; on CYP2A13 [4] (setting [10]), 20.7 ± 2.92%; on CYP2A13 [4] (setting [11]), 19.4 ± 1.39%; at CYP2A13 [4] (setting [12]) it was 18.4 ± 1.1%; on CYP2A13 [4] (setting [13]), 92.4 ± 4.03%. For the same compound, the activity at 20 µM at CYP2A13 [4] (setting [14]) stood at 23.9 ± 3.17%. In addition, on CYP2A6 [5] (ref Prasopthum et al., 2015), the “CYP2A6 Kinact” value was 0.09 ± 0.01^b. For the same compound, the “CYP2A6 Mode of inhibition” value at CYP2A6 [2] was “Mixed type^b”.
Turning to `O=c1c(O)c(-c2ccc(O)c(O)c2)oc2cc(O)cc(O)c12` [Quercetin 4, quercetin], on CYP2A13 [1], the “CYP2A13 Mode of inhibition” value is given as “Competitive” and the inhibitory constant (Ki) is 0.11 ± 0.01 µM. Also, the IC50 on CYP2A13 [1] (setting [6]) was determined as 0.74 ± 0.02 µM. In addition, the IC50 on CYP2A13 [1] (setting [7]) was determined as 0.8 ± 0.01 µM. Besides, the “CYP2A6 Mode of inhibition” value on CYP2A6 [2] is “Competitive^b”.
In the case of `C/C=C(/C)C(=O)O[C@H]1Cc2cc3ccc(=O)oc3cc2OC1(C)C` [decursinol angelate, reference compound], the KI (inactivation) at CYP2A6 [5] (setting [18]) is 2.42 µM.
In the case of `C#CCN(C)[C@H](C)Cc1ccccc1` [selegiline, reference compound], on CYP2A6 [5] (setting [18]), the KI (inactivation) was 15.6 µM.
Turning to `C=C(C)C(=O)OC1CC(C)C2(O)CCC(C)(/C=C3/OC(=O)C(COC(C)=O)=C31)O2` (stereo not drawn) [Hirsutinolide 5, 8α-(2-methylacryloyloxy)-hirsutinolide-13-O-acetate], the “CYP2A13 Mode of inhibition” value on CYP2A13 [1] was “Mixed type”. For the same compound, the IC50 is 4.5 ± 0.18 µM at CYP2A13 [1] (setting [6]), 16.4 ± 3.1 µM on CYP2A13 [1] (setting [7]), 8.64 ± 0.37 µM at CYP2A6 [2] (setting [16]) and 22.3 ± 2.5 µM on CYP2A6 [2] (setting [17]). Further, the Ki was 5.61 ± 0.99 µM at CYP2A13 [1] and 15.1 ± 2.1 µM at CYP2A6 [2]. At CYP2A13 [3], the kinact was 0.0005 s⁻¹. For the same compound, the KI (inactivation) was 0.92 ± 0.17 µM on CYP2A13 [3] and 7.45 ± 0.62 µM on CYP2A6 [5] (setting [15]). For the same compound, the activity at 10 µM is 24.1 ± 0.62% on CYP2A13 [4] (setting [8]); 28.2 ± 6.54% on CYP2A13 [4] (setting [9]); 24.4 ± 2.54% on CYP2A13 [4] (setting [10]); 20.3 ± 6.24% on CYP2A13 [4] (setting [11]); 18.6 ± 0.94% on CYP2A13 [4] (setting [12]); 86 ± 6.65% on CYP2A13 [4] (setting [13]). Also, the activity at 10 µM at CYP2A13 [4] (setting [14]) is 29.3 ± 2.53%. On CYP2A6 [5] (ref Prasopthum et al., 2015), the “CYP2A6 Kinact” value is 0.05 ± 0.01^b. Also, on CYP2A6 [2], the “CYP2A6 Mode of inhibition” value is “Mixed type^b”.
